According to patent US20230391768A2, “IMIDAZOPYRIDINE DERIVATIVES AND AZA-IMIDAZOPYRIDINE DERIVATIVES AS JANUS KINASE 2 INHIBITORS AND USES THEREOF” (Dana-Farber Cancer Institute, Inc., priority 2018, published 2023):

Tests used:
Test in all cases: KINOMEscan
Format in all cases: binding
RIPK5 = RIPK5 (Homo sapiens (Human), UniProt Q6XUX3); settings: read-out: percent of control
Method: (§1) In vitro profiling of Compound I-2 (1 μM) was performed using the DiscoveRx KINOMEscan® platform.

BLK = BLK (Homo sapiens (Human), UniProt P51451); settings: read-out: percent of control
Method: as §1

FGFR3 (G697C) = FGFR3 (G697C) (Homo sapiens (Human), UniProt P22607, G697C); settings: read-out: percent of control
Method: as §1

SNRK = SNRK (Homo sapiens (Human), UniProt Q9NRH2); settings: read-out: percent of control
Method: as §1

SRPK1 = SRPK1 (Homo sapiens (Human), UniProt Q96SB4); settings: read-out: percent of control
Method: as §1

WEE1 = WEE1 (Homo sapiens (Human), UniProt P30291); settings: read-out: percent of control
Method: as §1

CHEK1 = CHEK1 (Homo sapiens (Human), UniProt O14757); settings: read-out: percent of control
Method: as §1

TRKA = TRKA (Homo sapiens (Human), UniProt P04629); settings: read-out: percent of control
Method: as §1

MARK3 = MARK3 (Homo sapiens (Human), UniProt P27448); settings: read-out: percent of control
Method: as §1

KIT(D816H) = KIT(D816H) (Homo sapiens (Human), UniProt P10721, D816H); settings: read-out: percent of control
Method: as §1

LRRK2 = LRRK2 (Homo sapiens (Human), UniProt Q5S007); settings: read-out: percent of control
Method: as §1

TAOK2 = TAOK2 (Homo sapiens (Human), UniProt Q9UL54); settings: read-out: percent of control
Method: as §1

SGK3 = SGK3 (Homo sapiens (Human), UniProt Q96BR1); settings: read-out: percent of control
Method: as §1

CIT = CIT (Homo sapiens (Human), UniProt O14578); settings: read-out: percent of control
Method: as §1

EGFR(L861Q) = EGFR(L861Q) (Homo sapiens (Human), UniProt P00533, L861Q); settings: read-out: percent of control
Method: as §1

FLT3 (ITD,D835V) = settings: 1 μM
Method: as §1

IRAK1 = IRAK1 (Homo sapiens (Human), UniProt P51617); settings: read-out: percent of control
Method: as §1

GCN2(Kin.Dom.2,S808G) = GCN2(Kin.Dom.2,S808G) (Homo sapiens (Human), UniProt Q9P2K8, S808G); settings: read-out: percent of control
Method: as §1

MAP3K15 = MAP3K15 (Homo sapiens (Human), UniProt Q6ZN16); settings: read-out: percent of control
Method: as §1

SRMS = SRMS (Homo sapiens (Human), UniProt Q9H3Y6); settings: read-out: percent of control
Method: as §1

PIM1 = PIM1 (Homo sapiens (Human), UniProt P11309); settings: read-out: percent of control
Method: as §1

MAP3K2 = MAP3K2 (Homo sapiens (Human), UniProt Q9Y2U5); settings: read-out: percent of control
Method: as §1

PIK3CA(M1043I) = PIK3CA(M1043I) (Homo sapiens (Human), UniProt P42336, M1043I); settings: read-out: percent of control
Method: as §1

ZAP70 = ZAP70 (Homo sapiens (Human), UniProt P43403); settings: read-out: percent of control
Method: as §1

[1] = molecular target: ABL1(T315I)-nonphosphorylated (Homo sapiens (Human), UniProt P00519, T315I); settings: read-out: percent of control
Method: as §1

HCK = HCK (Homo sapiens (Human), UniProt P08631); settings: read-out: percent of control
Method: as §1

DAPK2 = DAPK2 (Homo sapiens (Human), UniProt Q9UIK4); settings: read-out: percent of control
Method: as §1

PIK3CA = PIK3CA (Homo sapiens (Human), UniProt P42336); settings: read-out: percent of control
Method: as §1

ERK2 = ERK2 (Homo sapiens (Human), UniProt P28482); settings: read-out: percent of control
Method: as §1

[2] = molecular target: ABL1(T315I)-phosphorylated (Homo sapiens (Human), UniProt P00519, T315I); settings: read-out: percent of control
Method: as §1

KIT(V559D) = KIT(V559D) (Homo sapiens (Human), UniProt P10721, V559D); settings: read-out: percent of control
Method: as §1

CDKL1 = CDKL1 (Homo sapiens (Human), UniProt Q00532); settings: read-out: percent of control
Method: as §1

TNIK = TNIK (Homo sapiens (Human), UniProt Q9UKE5); settings: read-out: percent of control
Method: as §1

ERK3 = ERK3 (Homo sapiens (Human), UniProt Q16659); settings: read-out: percent of control
Method: as §1

NIM1 = NIM1 (Homo sapiens (Human), UniProt Q8IY84); settings: read-out: percent of control
Method: as §1

LIMK1 = LIMK1 (Homo sapiens (Human), UniProt P53667); settings: read-out: percent of control
Method: as §1

EGFR(L858R, T790M) = EGFR(L858R, T790M) (Homo sapiens (Human), UniProt P00533, L858R/T790M); settings: read-out: percent of control
Method: as §1

VRK2 = VRK2 (Homo sapiens (Human), UniProt Q86Y07); settings: read-out: percent of control
Method: as §1

Sequence of KIT(V559D) (P10721 26-976 V559D): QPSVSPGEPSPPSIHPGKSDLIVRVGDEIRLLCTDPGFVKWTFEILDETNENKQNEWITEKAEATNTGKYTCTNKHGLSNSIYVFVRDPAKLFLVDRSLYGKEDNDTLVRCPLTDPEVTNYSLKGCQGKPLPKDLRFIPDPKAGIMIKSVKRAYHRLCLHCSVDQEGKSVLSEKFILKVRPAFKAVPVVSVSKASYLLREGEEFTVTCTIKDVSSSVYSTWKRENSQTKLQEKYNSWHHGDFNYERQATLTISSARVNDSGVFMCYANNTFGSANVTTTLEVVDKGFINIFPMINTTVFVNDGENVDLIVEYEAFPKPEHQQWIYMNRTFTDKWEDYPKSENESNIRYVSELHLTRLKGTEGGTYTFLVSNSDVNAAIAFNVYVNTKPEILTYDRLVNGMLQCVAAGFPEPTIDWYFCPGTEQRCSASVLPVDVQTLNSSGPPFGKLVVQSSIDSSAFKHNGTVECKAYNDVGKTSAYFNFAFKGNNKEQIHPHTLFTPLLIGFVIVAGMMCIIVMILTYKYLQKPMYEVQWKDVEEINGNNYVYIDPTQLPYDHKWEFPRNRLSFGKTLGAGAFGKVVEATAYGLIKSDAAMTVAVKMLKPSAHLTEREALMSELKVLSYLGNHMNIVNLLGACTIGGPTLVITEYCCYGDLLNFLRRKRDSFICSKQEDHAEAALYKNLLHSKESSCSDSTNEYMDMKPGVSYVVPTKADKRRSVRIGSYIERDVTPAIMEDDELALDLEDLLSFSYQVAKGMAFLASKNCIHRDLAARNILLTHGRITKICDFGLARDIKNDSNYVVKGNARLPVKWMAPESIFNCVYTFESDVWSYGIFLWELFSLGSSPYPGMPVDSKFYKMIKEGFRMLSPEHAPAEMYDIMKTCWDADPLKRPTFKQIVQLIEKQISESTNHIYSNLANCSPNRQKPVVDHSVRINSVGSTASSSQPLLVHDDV
Sequence of NIM1 (Q8IY84 whole entry): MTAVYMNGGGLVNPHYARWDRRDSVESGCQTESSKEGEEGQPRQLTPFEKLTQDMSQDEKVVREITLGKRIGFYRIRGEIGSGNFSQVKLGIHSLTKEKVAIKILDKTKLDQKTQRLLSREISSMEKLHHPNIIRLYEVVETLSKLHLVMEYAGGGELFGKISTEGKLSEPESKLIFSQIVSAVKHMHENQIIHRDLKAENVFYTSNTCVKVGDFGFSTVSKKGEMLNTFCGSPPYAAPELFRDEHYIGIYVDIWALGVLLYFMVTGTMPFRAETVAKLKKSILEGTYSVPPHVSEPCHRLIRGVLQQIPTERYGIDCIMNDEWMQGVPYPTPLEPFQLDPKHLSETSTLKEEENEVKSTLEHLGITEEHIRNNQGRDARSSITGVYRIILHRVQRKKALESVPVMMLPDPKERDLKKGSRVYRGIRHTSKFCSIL
Sequence of BLK (P51451 whole entry): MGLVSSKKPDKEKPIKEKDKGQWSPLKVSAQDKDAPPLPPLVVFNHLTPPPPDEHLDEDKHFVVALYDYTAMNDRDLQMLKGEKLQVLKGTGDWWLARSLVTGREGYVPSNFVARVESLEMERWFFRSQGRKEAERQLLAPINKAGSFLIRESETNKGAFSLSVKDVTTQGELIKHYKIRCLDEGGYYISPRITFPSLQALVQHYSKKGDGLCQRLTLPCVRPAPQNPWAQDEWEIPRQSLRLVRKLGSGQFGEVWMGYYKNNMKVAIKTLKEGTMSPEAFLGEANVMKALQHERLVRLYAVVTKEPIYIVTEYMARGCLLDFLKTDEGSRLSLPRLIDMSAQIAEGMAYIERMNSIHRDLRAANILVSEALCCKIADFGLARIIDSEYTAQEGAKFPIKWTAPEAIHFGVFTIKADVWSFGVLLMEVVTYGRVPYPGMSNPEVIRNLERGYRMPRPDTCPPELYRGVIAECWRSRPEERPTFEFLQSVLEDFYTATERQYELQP
Sequence of GCN2(Kin.Dom.2,S808G) (Q9P2K8 590-1001 S808G): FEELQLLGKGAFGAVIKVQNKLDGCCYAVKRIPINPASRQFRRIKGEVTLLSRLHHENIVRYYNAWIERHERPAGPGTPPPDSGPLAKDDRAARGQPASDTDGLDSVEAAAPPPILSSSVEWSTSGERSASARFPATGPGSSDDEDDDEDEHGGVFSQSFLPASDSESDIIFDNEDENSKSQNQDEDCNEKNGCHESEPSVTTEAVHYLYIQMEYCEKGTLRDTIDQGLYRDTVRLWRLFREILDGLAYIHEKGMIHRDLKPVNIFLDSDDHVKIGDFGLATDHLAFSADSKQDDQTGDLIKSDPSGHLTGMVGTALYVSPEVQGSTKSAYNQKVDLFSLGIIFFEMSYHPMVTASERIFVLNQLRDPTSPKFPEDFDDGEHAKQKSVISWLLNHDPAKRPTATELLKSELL
Sequence of FGFR3 (G697C) (P22607 23-806 G697C): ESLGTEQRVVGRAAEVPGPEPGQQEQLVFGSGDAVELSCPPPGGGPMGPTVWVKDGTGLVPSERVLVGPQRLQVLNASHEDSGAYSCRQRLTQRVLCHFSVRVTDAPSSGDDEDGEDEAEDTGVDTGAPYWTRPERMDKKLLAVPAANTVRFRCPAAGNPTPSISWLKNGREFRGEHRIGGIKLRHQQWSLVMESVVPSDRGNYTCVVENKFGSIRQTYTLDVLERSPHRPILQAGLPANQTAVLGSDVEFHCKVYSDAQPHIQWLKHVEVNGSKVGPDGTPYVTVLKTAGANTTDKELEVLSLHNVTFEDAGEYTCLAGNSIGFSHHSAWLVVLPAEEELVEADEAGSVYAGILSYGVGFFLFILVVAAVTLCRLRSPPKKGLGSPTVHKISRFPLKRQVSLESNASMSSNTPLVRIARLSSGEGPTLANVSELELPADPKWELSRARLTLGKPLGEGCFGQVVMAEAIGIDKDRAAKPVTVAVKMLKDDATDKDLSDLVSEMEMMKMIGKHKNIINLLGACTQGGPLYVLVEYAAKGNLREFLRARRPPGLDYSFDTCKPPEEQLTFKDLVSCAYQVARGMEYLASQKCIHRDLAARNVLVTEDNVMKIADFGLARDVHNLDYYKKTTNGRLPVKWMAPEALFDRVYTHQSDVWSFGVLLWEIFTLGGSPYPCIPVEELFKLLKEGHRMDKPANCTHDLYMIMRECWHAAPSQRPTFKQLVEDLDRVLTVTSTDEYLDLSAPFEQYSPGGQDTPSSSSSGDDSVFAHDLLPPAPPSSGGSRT
Sequence of MARK3 (P27448 whole entry): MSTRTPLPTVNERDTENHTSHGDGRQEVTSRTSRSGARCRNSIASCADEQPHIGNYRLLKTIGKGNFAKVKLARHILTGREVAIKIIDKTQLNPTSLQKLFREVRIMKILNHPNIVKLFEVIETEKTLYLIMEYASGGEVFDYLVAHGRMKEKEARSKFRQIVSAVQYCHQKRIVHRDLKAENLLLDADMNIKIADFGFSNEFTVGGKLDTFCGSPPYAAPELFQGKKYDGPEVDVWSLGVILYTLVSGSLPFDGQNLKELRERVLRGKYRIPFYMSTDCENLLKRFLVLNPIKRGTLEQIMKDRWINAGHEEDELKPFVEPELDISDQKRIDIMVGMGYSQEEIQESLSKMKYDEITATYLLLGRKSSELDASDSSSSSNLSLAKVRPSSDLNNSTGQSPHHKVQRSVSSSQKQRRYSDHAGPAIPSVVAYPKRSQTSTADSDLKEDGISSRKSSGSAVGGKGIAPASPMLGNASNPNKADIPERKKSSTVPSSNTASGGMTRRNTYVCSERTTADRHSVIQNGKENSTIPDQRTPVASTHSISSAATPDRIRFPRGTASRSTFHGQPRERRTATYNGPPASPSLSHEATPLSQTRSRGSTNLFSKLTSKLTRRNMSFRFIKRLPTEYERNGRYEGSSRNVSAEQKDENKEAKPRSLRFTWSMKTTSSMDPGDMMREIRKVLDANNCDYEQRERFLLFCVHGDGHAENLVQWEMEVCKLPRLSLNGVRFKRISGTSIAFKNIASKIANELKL
Sequence of PIK3CA (P42336 whole entry): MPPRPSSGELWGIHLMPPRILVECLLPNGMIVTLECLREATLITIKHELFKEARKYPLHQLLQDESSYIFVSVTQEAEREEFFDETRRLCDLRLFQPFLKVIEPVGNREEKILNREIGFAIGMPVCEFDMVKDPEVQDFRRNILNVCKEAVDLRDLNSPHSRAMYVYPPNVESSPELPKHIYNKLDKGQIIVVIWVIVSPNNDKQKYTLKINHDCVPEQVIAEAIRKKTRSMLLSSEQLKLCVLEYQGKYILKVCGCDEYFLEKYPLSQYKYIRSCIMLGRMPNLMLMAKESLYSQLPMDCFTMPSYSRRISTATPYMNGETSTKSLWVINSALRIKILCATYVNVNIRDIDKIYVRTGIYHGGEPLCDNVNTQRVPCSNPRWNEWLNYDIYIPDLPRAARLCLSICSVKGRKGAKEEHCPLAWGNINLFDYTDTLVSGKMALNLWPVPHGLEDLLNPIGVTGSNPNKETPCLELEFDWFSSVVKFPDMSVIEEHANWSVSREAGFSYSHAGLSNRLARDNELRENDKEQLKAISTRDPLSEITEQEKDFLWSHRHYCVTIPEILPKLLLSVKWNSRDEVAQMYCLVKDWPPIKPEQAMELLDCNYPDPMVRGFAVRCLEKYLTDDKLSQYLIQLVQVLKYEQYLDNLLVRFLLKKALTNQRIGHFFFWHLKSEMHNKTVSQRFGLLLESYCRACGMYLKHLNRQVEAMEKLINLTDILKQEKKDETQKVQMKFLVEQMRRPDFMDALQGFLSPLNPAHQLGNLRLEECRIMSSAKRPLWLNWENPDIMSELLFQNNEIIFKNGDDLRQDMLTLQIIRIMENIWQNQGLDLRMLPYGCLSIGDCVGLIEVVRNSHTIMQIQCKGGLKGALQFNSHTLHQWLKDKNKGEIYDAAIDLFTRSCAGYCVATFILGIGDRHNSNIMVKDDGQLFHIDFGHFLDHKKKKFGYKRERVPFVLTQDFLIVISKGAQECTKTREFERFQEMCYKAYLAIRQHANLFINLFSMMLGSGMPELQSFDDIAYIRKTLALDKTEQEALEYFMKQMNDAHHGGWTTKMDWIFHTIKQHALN
Sequence of KIT(D816H) (P10721 26-976 D816H): as the sequence (P10721 26-976 V559D) above, with D534V, D791H counted along it
Sequence of PIK3CA(M1043I) (P42336 whole entry M1043I): as the sequence (P42336 whole entry) above, with M1043I counted along it

SMILES	remaining binding at 1 µM (RIPK5) [%]	remaining binding at 1 µM (BLK) [%]	remaining binding at 1 µM (FGFR3 (G697C)) [%]	remaining binding at 1 µM (SNRK) [%]	remaining binding at 1 µM (SRPK1) [%]	remaining binding at 1 µM (WEE1) [%]	remaining binding at 1 µM (CHEK1) [%]	remaining binding at 1 µM (TRKA) [%]	remaining binding at 1 µM (MARK3) [%]	remaining binding at 1 µM (KIT(D816H)) [%]	remaining binding at 1 µM (LRRK2) [%]	remaining binding at 1 µM (TAOK2) [%]	remaining binding at 1 µM (SGK3) [%]	remaining binding at 1 µM (CIT) [%]	remaining binding at 1 µM (EGFR(L861Q)) [%]	percent of control (FLT3 (ITD,D835V)) [%]	remaining binding at 1 µM (IRAK1) [%]	remaining binding at 1 µM (GCN2(Kin.Dom.2,S808G)) [%]	remaining binding at 1 µM (MAP3K15) [%]	remaining binding at 1 µM (SRMS) [%]	also measured
CCN1CCN(Cc2cc(NC(=O)c3ccc(C)c(-c4ccc5nc(NC(=O)C6CC6)cn5n4)c3)cc(C(F)(F)F)c2)CC1 [Compound I-2, 3-(2-(cyclopropanecarboxamido)imidazo[1,2-b]pyridazin-6-yl)-N-(3-((4-ethylpiperazin-1-yl)methyl)-5-(trifluoromethyl)phenyl)-4-methylbenzamide]	89	0.75	87	84	85	94	100	0.75	94	38	100	8.6	100	0.1	82	61	18	82	55	86	remaining binding at 1 µM (PIM1): 90%; remaining binding at 1 µM (MAP3K2): 28%; remaining binding at 1 µM (PIK3CA(M1043I)): 100%; remaining binding at 1 µM (ZAP70): 66%; remaining binding at 1 µM [1]: 0%; remaining binding at 1 µM (HCK): 0%; remaining binding at 1 µM (DAPK2): 94%; remaining binding at 1 µM (PIK3CA): 78%; remaining binding at 1 µM (ERK2): 100%; remaining binding at 1 µM [2]: 1.4%; remaining binding at 1 µM (KIT(V559D)): 0%; remaining binding at 1 µM (CDKL1): 40%; remaining binding at 1 µM (TNIK): 16%; remaining binding at 1 µM (ERK3): 89%; remaining binding at 1 µM (NIM1): 99%; remaining binding at 1 µM (LIMK1): 87%; remaining binding at 1 µM (EGFR(L858R, T790M)): 100%; remaining binding at 1 µM (VRK2): 88%
CCN1CCN(Cc2cc(NC(=O)c3ccc(C)c(-c4ccc5nc(NC(=O)C6CC6)cn5c4)c3)cc(C(F)(F)F)c2)CC1 [Compound I-6, 3-(2-(cyclopropanecarboxamido)imidazo[1,2-a]pyridin-6-yl)-N-(3-((4-ethylpiperazin-1-yl)methyl)-5-(trifluoromethyl)phenyl)-4-methylbenzamide]	100	0.2	69	99	57	100	100	0	95	29	87	7.6	100	0.35	54	76	29	97	95	79	remaining binding at 1 µM (PIM1): 93%; remaining binding at 1 µM (MAP3K2): 78%; remaining binding at 1 µM (PIK3CA(M1043I)): 73%; remaining binding at 1 µM (ZAP70): 30%; remaining binding at 1 µM [1]: 0%; remaining binding at 1 µM (HCK): 0.05%; remaining binding at 1 µM (DAPK2): 100%; remaining binding at 1 µM (PIK3CA): 96%; remaining binding at 1 µM (ERK2): 100%; remaining binding at 1 µM [2]: 2.2%; remaining binding at 1 µM (KIT(V559D)): 0.05%; remaining binding at 1 µM (CDKL1): 77%; remaining binding at 1 µM (TNIK): 14%; remaining binding at 1 µM (ERK3): 100%; remaining binding at 1 µM (NIM1): 88%; remaining binding at 1 µM (LIMK1): 96%; remaining binding at 1 µM (EGFR(L858R, T790M)): 59%; remaining binding at 1 µM (VRK2): 92%
